According to US20240409935A1, “Atg8ylation coordinates stress granule formation and mTOR inactivation in response to lysosomal damage” (priority 2023, published 2024):
Residues, ends and D or L forms follow the SMILES beside them. *: point of attachment. βNA = c1ccc2cc(N*)ccc2c1

Assays:
[1] = tested on: G3BP1 puncta (stress granules) in U2OS cells; assay: HCM quantification of G3BP1 puncta (stress granule formation) in U2OS cells; type: cell-based, human; conditions: for SG formation response (G3BP1 puncta): agent alone for 30 min (2 mM LLOMe, 200 μM GPN, 400 μg/mL silica, 4 mM LOMe)
[2] = tested on: eIF2α (S51) phosphorylation; assay: Immunoblot analysis of eIF2α (S51) phosphorylation in U2OS cells; type: cell-based, human
[3] = tested on: TFEB; assay: TFEB nuclear translocation (HCM) and TFEB (S142) phosphorylation in Huh7 cells; type: cell-based, human; conditions: 530 nM AZD6244 for 2 h, 1 mM LLOMe for 30 min
Procedure: FIGS. 2SA-2SG show the cellular transcriptional response during lysosomal damage. FIG. 2SA RNAseq analysis of the change on gene expression in HEK293T cells in response to 1 mM LLOMe treatment for 30 min. […] The dotted line indicates the significance cut-off (P<0.05). […] Ctrl, control (untreated cells). […] Blue: nuclei, Hoechst 33342. Red: anti-TFEB antibody, Alexa Fluor 568. White masks, computer-algorithm-defined cell boundaries. Pink masks, computer-identified nuclear TFEB based on the average intensity of Alexa Fluor 568 fluorescence. […] Red masks, computer-identified G3BP1 puncta. […] Red masks, computer-identified G3BP1 puncta. Ctrl, control (untreated cells). Data, means±SEM; HCM: n≥3 (each experiment: 500 valid primary objects/cells per Well, ≥5 Well s/sample). **p<0.01, ANOVA.

[4] = tested on: ALIX puncta in U2OS cells; assay: HCM quantification of ALIX puncta in U2OS cells; type: cell-based, human; conditions: 15 μM BAPTA-AM for 1 h, then 2 mM LLOMe for 30 min
Procedure: Cells Were treated with 2 mM LLOMe for 30 min. White masks, algorithm-defined cell boundaries; red masks, computer-identified G3BP1 puncta. […] Cells Were treated with 2 mM LLOMe for 30 min. White masks, algorithm-defined cell boundaries; green masks, computer-identified ALIX puncta. NT, untreated cells. Data, means±SEM (n=3); HCM: n≥3 (each experiment: 500 valid primary objects/cells per Well, ≥5 Well s/sample). †p≥0.05 (not significant), **p<0.01, ANOVA. See also FIG. 11.

[5] = tested on: G3BP1 puncta in THP-1 cells; assay: Stress granule formation in THP-1 cells; type: cell-based, human
Procedure: (§1) FIGS. 12SA-12SF. Stress granules are important for cell survival in response to lysosomal damage in disease states. […] White masks, algorithm-defined cell boundaries; red masks, computer-identified LTR puncta. […] White masks, algorithm-defined cell boundaries; green masks, computer-identified ALIX puncta. […] White masks, algorithm-defined cell boundaries; red masks, computer-identified G3BP1 puncta. […] Cells Were treated with 200 μg/mL silica for 4 h in the presence or absence of 100 nM ISRIB, and then stained with propidium iodide PI (dead cells) and Hoechst-33342 (total cells). White masks, algorithm-defined cell boundaries; red masks, computer-identified PI^+ nuclei. […]
How does SG formation affect cell fate during lysosomal damage? […] The inventors quantified the number of SGs using the canonical SG marker polyA RNA (Ivanov et al., 2019) via high-content microscopy (HCM) (FIG. S1B) and verified the depletion of SG formation in ΔΔG3BP1/2 cells when exposed to the lysosome-specific damaging agent L-leucyl-L-leucine methyl ester (LLOMe) (Jia et al., 2022; Tan et al., 2022; Thiele et al., 1990) (FIG. 7SB). A propidium iodide (PI) uptake assay measuring plasma membrane integrity (Crowley et al., 2016; Liu et al., 2023) was adapted to quantify cell survival during lysosomal damage using HCM. […]

[6] = tested on: ATF4; assay: ATF4 expression in THP-1 cells; type: cell-based, human
[7] = tested on: THP-1 cells; assay: Cell survival of THP-1 cells; type: cell-based
[8] = tested on: human peripheral blood monocyte-derived macrophages (hMDM); assay: PI uptake cell death assay (HCM) in hMDM; type: cell-based
Procedure: Cells Were treated with 2 mM LLOMe for 30 min, and then stained with propidium iodide (PI) (dead cells) and Hoechst-33342 (total cells). White masks, algorithm-defined cell boundaries (primary objects); red masks, computer-identified PI^+ nuclei (target objects). […] Cells Were treated with 2 mM LLOMe for 30 min. […] Cells Were treated with 2 mM in the presence or absence of 10 μg/ml cycloheximide (CHX) for 30 min, and then stained with PI (dead cells) and Hoechst-33342 (total cells). […] Scale bar, 10 μm. […] Cells Were treated with 2 mM LLOMe with or without CHX for 30 min, and then stained using Live/Dead™ stain kit (ThermoFisher). […] Cells Were treated with 2 mM LLOMe for 30 min, and then stained with PI (dead cells), Hoechst-33342 (total cells) or eIF4G. (i) HCM images: white masks, algorithm-defined cell boundaries; green masks, computer-identified eIF4G puncta; red masks, computer-identified PI^+ nuclei (target objects); (ii and iii) corresponding HCM quantification. […] Cells Were treated with 2 mM LLOMe for 30 min. […] CTR, control; NT, untreated cells. Data, means±SEM (n=3); HCM: n≥3 (each experiment: 500 valid primary objects/cells per Well, ≥5 Well s/sample). †p≥0.05 (not significant), *p<0.05, **p<0.01, ANOVA. See also FIG. 7S.
as §1

[9] = tested on: Galectin-3 puncta in BMM cells; type: cell-based, murine
[10] = tested on: mTOR; assay: mTOR/mTORC1 activity by phosphorylation of its substrates (4EBP1 S65, ULK1 S757, S6K1 T389) in U2OS cells; type: cell-based, human
[11] = tested on: NUFIP2, G3BP1 and TIA1 on lysosomes; type: cell-based, human
[12] = tested on: U2OS cells; assay: LDH release assay in U2OS cells; type: cell-based, human; conditions: LLOMe plus cycloheximide
From the text: How does SG formation affect cell fate during lysosomal damage? The inventors utilized SG deficient U2OS cells (human osteosarcoma epithelial cell line) genetically lacking both G3BP1 and G3BP2 (ΔΔG3BP1/2) (Nancy Kedersha et al., 2016), which are essential factors for SG formation (Guillén-Boixet et al., 2020; Nancy Kedersha et al., 2016; P. Yang et al., 2020) (FIG. 7SA). The inventors quantified the number of SGs using the canonical SG marker polyA RNA (Ivanov et al., 2019) via high-content microscopy (HCM) (FIG. S1B) and verified the depletion of SG formation in ΔΔG3BP1/2 cells when exposed to the lysosome-specific damaging agent L-leucyl-L-leucine methyl ester (LLOMe) (Jia et al., 2022; Tan et al., 2022; Thiele et al., 1990) (FIG. 7SB). A propidium iodide (PI) uptake assay measuring plasma membrane integrity (Crowley et al., 2016; Liu et al., 2023) was adapted to quantify cell survival during lysosomal damage using HCM. […] This was additionally confirmed by using a lactate dehydrogenase (LDH) release assay measuring non-specific leak from cells (Chan et al., 2013; Kumar et al., 2018) (FIG. 1B). […] Elevated cell death, as quantified by PI uptake assay (FIG. 1F (i, iii)) and the LDH release assay (FIG. 1G), was detected in G3BP1/2^DKD in response to LLOMe treatment. […]

[13] = tested on: human peripheral blood monocyte-derived macrophages (hMDM); conditions: 1 μg/ml cycloheximide
[14] = tested on: human peripheral blood monocyte-derived macrophages (hMDM); conditions: hemozoin (10.0 mg/mL) 4 h, 1 μg/ml cycloheximide
[15] = tested on: PKR; assay: LysoIP immunoblotting of PKR and eIF2α phosphorylation on damaged lysosomes from HEK293T cells; type: cell-based, human; conditions: 1 mM LLOMe with 210 nM imidazolo-oxindole C16 for 1 h

Nc1ncc2[nH]cnc2n1 [2-AP, 2-aminopurine]
SG formation in response to LLOMe treatment, with 2-AP ([1]; 2-AP for 1 h followed by 2 mM LLOMe for 30 min): inhibited, in a dose-response fashion, SG formation | eIF2α phosphorylation in cells treated with LLOMe, with PKR inhibitor ([2]; U2OS cells, 2-AP for 1 h followed by 2 mM LLOMe for 30 min): inhibited eIF2α phosphorylation

Cn1cnc2c(F)c(Nc3ccc(Br)cc3Cl)c(C(=O)NOCCO)cc21 [AZD6244]
nuclear translocation of TFEB and dephosphorylation at Ser142: lysosomal damage compared with AZD6244 [3]: equal in magnitude

CC(=O)OCOC(=O)CN(CC(=O)OCOC(C)=O)c1ccccc1OCCOc1ccccc1N(CC(=O)OCOC(C)=O)CC(=O)OCOC(C)=O [BAPTA-AM]
SG formation during lysosomal damage, with BAPTA-AM ([1]; 15 μM BAPTA-AM for 1 h, then 2 mM LLOMe for 30 min): significant reduction in SG formation | eIF2α phosphorylation during lysosomal damage, with BAPTA-AM ([2]; U2OS cells, 15 μM BAPTA-AM for 1 h, then 2 mM LLOMe for 30 min): significant reduction | ALIX puncta formation upon lysosomal damage, with BAPTA-AM [4]: decrease in ALIX puncta formation

NCC(=O)N[C@@H](Cc1ccccc1)C(=O)Nc1ccc2ccccc2c1 [GPN, glycyl-L-phenylalanine-2-naphthyl amide] (H-Gly-Phe-βNA)
SG formation response (G3BP1 puncta) [1]: strong SG formation response

O=C(COc1ccc(Cl)cc1)N[C@H]1CC[C@@H](NC(=O)COc2ccc(Cl)cc2)CC1 [ISRIB, N,N′-((1s,4s)-cyclohexane-1,4-diyl)bis(2-(4-chlorophenoxy)acetamide)]
SG formation upon lysosomal damage, with ISRIB [5]: prevented SG formation | ATF4 expression levels upon lysosomal damage, with ISRIB [6]: reduction in ATF4 expression levels | cell survival upon lysosomal damage, with ISRIB [7]: decrease in cell survival | cell death by PI uptake assay during tau oligomer treatment, with ISRIB ([8]; 10 μg/mL tau oligomer for 4 h, 100 nM ISRIB): comparable effect on cell death | cell death by PI uptake assay during silica treatment, with ISRIB ([8]; 200 μg/mL silica for 4 h, 100 nM ISRIB): comparable effect on cell death

COC(=O)[C@@H](N)CC(C)C [LOMe]
SG formation response (G3BP1 puncta) [1]: did not induce SG formation

O=[As][O-].[Na+] [arsenite, NaAsO2]
lysosomal damage monitored by Galectin-3 response [9]: did not induce lysosomal damage | eIF2α phosphorylation under arsenic stress [2]: led to eIF2α phosphorylation | mTORC1 activity under arsenic stress [10]: activating mTORC1 activity | enrichment of NUFIP2, G3BP1 and TIA1 on purified lysosomes [11]: not on lysosomes purified from cells treated with arsenite

C[C@@H]1C[C@@H]([C@H](O)CC2CC(=O)NC(=O)C2)C(=O)[C@@H](C)C1 [cycloheximide]
SG formation (G3BP1 puncta) following LLOMe treatment, with cycloheximide [1]: inhibited SG formation | cell survival by LDH release, with cycloheximide during lysosomal damage [12]: increased LDH release | cell death by PI uptake assay during LLOMe treatment, with cycloheximide ([8]; 2 mM LLOMe with 10 μg/ml cycloheximide for 30 min): significant increase in cell death | cell death (AMNIS, Live/Dead) during tau oligomer treatment, with cycloheximide ([13]; 10 μg/mL tau oligomer for 4 h): augmented cell death | cell death (AMNIS, Live/Dead) during silica treatment, with cycloheximide ([13]; 200 μg/mL silica for 4 h): augmented cell death | cell death by LDH release assay in response to hemozoin, with cycloheximide [14]: increased cell death

O=C1Nc2ccc3ncsc3c2/C1=C/c1cnc[nH]1 [imidazolo-oxindole C16]
SG formation during lysosomal damage, with C16 ([1]; 210 nM imidazolo-oxindole C16 for 2 h followed by 2 mM LLOMe for 30 min): reduced SG formation | phosphorylation of both PKR and eIF2α on damaged lysosomes, with C16 [15]: effectively blocked
